Data published in patent US20260000645A1, “USE OF EBSELEN OR ONE OF THE DERIVATIVES THEREOF TO TREAT MITOCHONDRIAL PATHOLOGIES OR DYSFUNCTIONS” (ASSOCIATION FRANCAISE CONTRE LES MYOPATHIES, priority 2022, published 2026).

How the values were obtained:
[1] = tested on: mutant yeast strain sym1; assay: Cellular respiration (OROBOROS oxygraph) in sym1; type: cell-based, Saccharomyces cerevisiae; conditions: EBS 1 μM, compared to non-treated cells
Description: Respiratory intensity corresponds to the amount of oxygen consumed with respect to time and the number of cells. It reflects the mitochondrial oxidative metabolism of the cells. The consumption of oxygen was measured using the OROBOROS oxygraph system. The cells were cultivated over 7-8 generations at 28° C. for 24 to 48 h in an Ethanol YPA medium supplemented by DMSO or EBS (1 μM). 10^7 cells were introduced into the oxygraph. The consumption of O2 was recorded with or without CCCP (maximum rate of oxygen consumption). The rate of O2 consumption was calculated on the basis of the linear part of the O2 consumption.
(§1) The experiments described in example 2 were implemented on the mutant yeast strain sym1.
(§2) The data are the averages ±SEM of at least three independent experiments. The significance of the variations between samples and the controls were estimated using the multi-factorial Anova: Tukey test.

[2] = tested on: Cox2 protein in mutant yeast strain sym1; assay: Accumulation of Cox2 protein in sym1; type: cell-based, Saccharomyces cerevisiae; conditions: EBS 1 μM, compared to non-treated cells
Description: Total protein extracts from the mutant yeast strain were analyzed by SDS-PAGE ([…] per well) using antibodies against the indicated proteins. The gels shown are representative of at least 3 experiments. Protein levels were quantified using the ImageJ software. The levels of Cox2 were normalized with respect to Ade13p and expressed with respect to the wild type (WT) strain.
as §1, §2

[3] = Weight of KO mice lacking the TAZ gene (mouse model of Barth syndrome); type: in vivo; conditions: 10 mg/kg force-fed twice a day from age 51 days, 1 month; vs solvent
Description: Mice lacking the TAZ gene (KO model of Barth syndrome) or wild type (WT) gene were force-fed twice a day with 10 mg/kg of Ebselen as of an age of 51 days. The weight was regularly monitored during 1 month of treatment.

[4] = tested on: fibroblasts of TAZ patients; assay: Mitochondrial ATP level in fibroblasts of TAZ patients (CellTiter-Glo); type: cell-based, human; conditions: EBS 12.15 nM for 96 hours
Description: The levels of mitochondrial ATP in the fibroblasts of TAZ patients were evaluated using a Promega CellTiter-Glo kit. The cells in 96 well plates (5000/well) were treated or not treated with 12.15 nM of EBS for 96 hours then were incubated in the presence of Antimycin A (100 μM), of Rotenone (0.5 μM) or oligomycin A (3 μM).

[5] = tested on: fibroblasts of TAZ patients; assay: Respiratory growth/proliferation of fibroblasts of TAZ patients (SRB, low glucose); type: cell-based, human
Description: EBS was tested for the effect thereof on the respiratory growth of fibroblasts of TAZ patients, as opposed to fibroblasts from eight different patients, carriers of mutations in the TAZ gene (suffering from Barth's syndrome).
The rate of proliferation was measured in a medium with a weak concentration of glucose (1 g/L; to force cells to use the OXPHOS system rather than glycolyse) in 384 well micro-titration plates (1200 cells/wells at T0) using the Sulforhodamine B (SRB) staining protocol at 24, 48, 72 or 96 hours after placing the cells with or without 12.15 nM of EBS.
The data are the average of 8 patients or 3 controls in triplicate, in 4 independent experiments.
The rate of proliferation was then measured under the same experimental conditions but with variable concentrations of ethaselen: The cells were analyzed 96 hours after treatment with increasing doses of ethaselen (from 150 pM to 26.1 μM). The bars represent the average of 4 replicates coming from 2 patients in 3 independent experiments.

[6] = tested on: fibroblast lines of patients carrying mutations of the nuclear gene NDUFV1; assay: Mitochondrial respiration of NDUFV1 patient fibroblasts (Seahorse XF96); type: cell-based, human; conditions: 48 h exposure
Description: EBS was also tested for the ability thereof to restore mitochondrial respiration of fibroblast lines of patients carrying mutations of the nuclear gene NDUFV1 of mitochondrial complex I. The human lines NDUFV1 mimicking the human illnesses related to a mitochondrial deficit of complex I (Leigh's syndrome) are carriers of genetic mutations affecting the gene NDUFV1. These cell lines were cultivated in a DMEM medium containing 1.0 g/L of glucose and 1 mM of sodium pyruvate and 50 μg/ml of uridine (Sigma Aldrich, Lyon, France).
The respiration was measured using a Seahorse XF96 extracellular flow metabolic analyzer in 96 well plates according to the manufacturer's protocol (Agilent Technologies). Deficient cells were exposed for 48 h to different concentrations with a dose response curve associating a range of concentrations from 25 nM to 10 μM. […]
The measurement of the oxygen consumption rate (OCR) was recorded under basal conditions to evaluate the mitochondrial respiratory activity and then the cells were treated sequentially with 4 μg/mL of oligomycin and 1.5 μM of carbonyl cyanide p-(trifluoromethoxy) phenylhydrazone (FCCP) (Sigma-Aldrich). The basal OCR, the respiration related to ATP, the maximum respiratory capacity and the respiration by proton leak were determined. […] Maximum respiratory capacity has been determined as the rate of respiration in the presence of uncoupling FCCP. […]

[7] = tested on: HeLa KO FMC1; assay: Proliferation of HeLa KO FMC1 cell line (SRB); type: cell-based, human; conditions: glucose 1 g/L or galactose; 96 hours; dose-dependent, wide range of concentrations (pM to μM)
Description: The cell line HeLa KO FMC1, mimicking human illnesses related to a deficiency of ATP synthase (NARP, MILS syndromes), were generated by the CRISPR-Cas9 method. The cell line HeLa KO FMC1 was cultivated in a DMEM medium containing 4.5 g/L of glucose and 110 mg/l of pyruvate and 50 mg/l of uridine.
The rate of proliferation of this HeLa cell line in which the gene FMC1 was deleted was measured in a medium containing either a low concentration of glucose (1 g/L), or of galactose in micro-plates of 384 wells (4500 cells/cm^2 at T0) using the Sulforhodamine B (SRB) staining protocol 96 hours after seeding and treatment of the cells. The bars represent the average of 8 replicates coming from 3 independent experiments.

[8] = 96 hours, vs negative control DMSO

Which cell respiration [1] does the source give for O=c1c2ccccc2[se]n1-c1ccccc1 [ebselen, 2-phenyl-1,2-benzisoselenazol-3(2H)-one] here?
The cell respiration was “increased”.

What about the “level of Cox2” value [2] of the same molecule?
Its value is “increased”.

What about the “weight of KO mice” value [3] of the same molecule?
The value was “seemed to take on more weight”.

What about the “mitochondrial ATP production” value [4] of the same molecule?
Its value is “improves”.

What about the toxicity concentration ([5]; 96 hours, fibroblasts of TAZ patients) of the same molecule?
Its toxicity concentration is over 234.9 µM.

And the “concentration range improving respiratory growth/proliferation, lower limit” value [5, 8]?
Its value is at least 1.35 nM.

And the “concentration range improving respiratory growth/proliferation, upper limit” value [5, 8]?
Its value is at most 8.7 µM.

What about the “respiratory growth of fibroblasts of TAZ patients” value ([5]; EBS 12.15 nM, glucose 1 g/L, 24, 48, 72, 96 hours) of the same molecule?
The value was “improves”.

What about the “time after which EBS is effective” value ([5]; EBS 12.15 nM, more pronounced at 48, 72 and 96 hours) of the same molecule?
The value was 24 h.

And the toxic concentration [6]?
The toxic concentration was over 10 µM.

What about the “proliferation of model cells of an ATP synthase deficiency” value [7] of the same molecule?
Its value is “improves”.
